Reference: patent US20080176263A1, “Materials and Methods for Efficient and Accurate Detection of Analytes” (University of Florida Research Foundation, Inc., priority 2006, published 2008)
Where “and” joins values, the source holds several entries; their conditions need not be identical. Identical values can stand only once. Blank lines part the entries; values can stand above or below the substance they belong to. Numbered stars: 1 amine (or outer) side, 2 acyl side, 3 side chain; on linkers, the order of the positions; unused ones are H or OH. Square brackets hold non-standard residues; d marks the D form. * marks the point of attachment. Dab(5-FAM) = O=C(NCC[C@H](N[*:1])C(=O)[*:2])c1ccc2c(c1)C(=O)OC21c2ccc(O)cc2Oc2cc(O)ccc21; EDANS = O=S(=O)(O)c1cccc2c(NCCN*)cccc12; DABCYL = DABCYL quencher; GABA = NCCCC(=O)O

Tests used:
substrate TNO211 [1] = assay: Study #1: time-to-detection of protease activity, cleavage of substrate TNO211 by fluorescence; type: biochemical; details: protease concentrations ≦100 ng/ml
Description: 1. Prepare a suitable standard curve diluted in enzyme buffer. Typically, a maximum of 50 ng/ml final protease concentration in the assay is used. Keep on ice until use.
2. Prepare the substrate solution by diluting the Stock Reconstituted Substrate (in DMSO) to 5.56 uM in the desired Assay Buffer (EDTA-free or EDTA-containing) to produce 90 ul of total EDTA-free or EDTA-containing Assay Buffer per well.
3. Pipette 90 ul substrate solution into each well to be assayed.
4. Take an initial fluorescence reading. To minimize interference due to the fluorescence of endogenous proteins in the samples, we routinely use excitation/emission wavelengths of 355/535 nm, respectively.
5. Pipette 10 ul standards, samples, or Enzyme Buffer (BLANK) into each well of the 96-well fluorescence assay plate.
6. Measure the change in fluorescence continuously until the standard range of interest is sufficiently resolved. Protect from light at RT or 37° C. between measurements.
7. Determine the best-fit curve relating the Change in Fluorescence (AF) vs.
[Protease]. […]
One hundred, 10, 1, and 0.1 ng of pronase, MMP-2, MMP-9, and clostridial collagenase were assayed in a total reaction volume of 100 ul for cleavage of substrate TNO211 as detected by fluorescence. The reactions were monitored for approximately one hour after the addition of the proteases.

substrate TNO211 [2] = assay: Study #3: protease detection sensitivity, visual detection under UV; type: biochemical; details: within 10 minutes; from 17% and 28% of pronase activity
Description: To investigate the visual detection limits of pronase, standard curves (1000-0 ng) of the protease were reacted in 50, 100, and 200 uM substrate diluted in the assay buffer. Digital photographs were taken under white light and UV. These observations were compared to those obtained quantitatively using the fluorescence plate reader. The observed detection limits for pronase were used to calculate theoretical detection limits for MMP-2 and MMP-9 (17% and 28% as active as pronase, respectively).

MMP-2 = target: T1, MMP-2 (Homo sapiens, UniProt P08253); details: at 37° C., pH 7.64; cited from earlier work
T1 sequence (P08253 110-660): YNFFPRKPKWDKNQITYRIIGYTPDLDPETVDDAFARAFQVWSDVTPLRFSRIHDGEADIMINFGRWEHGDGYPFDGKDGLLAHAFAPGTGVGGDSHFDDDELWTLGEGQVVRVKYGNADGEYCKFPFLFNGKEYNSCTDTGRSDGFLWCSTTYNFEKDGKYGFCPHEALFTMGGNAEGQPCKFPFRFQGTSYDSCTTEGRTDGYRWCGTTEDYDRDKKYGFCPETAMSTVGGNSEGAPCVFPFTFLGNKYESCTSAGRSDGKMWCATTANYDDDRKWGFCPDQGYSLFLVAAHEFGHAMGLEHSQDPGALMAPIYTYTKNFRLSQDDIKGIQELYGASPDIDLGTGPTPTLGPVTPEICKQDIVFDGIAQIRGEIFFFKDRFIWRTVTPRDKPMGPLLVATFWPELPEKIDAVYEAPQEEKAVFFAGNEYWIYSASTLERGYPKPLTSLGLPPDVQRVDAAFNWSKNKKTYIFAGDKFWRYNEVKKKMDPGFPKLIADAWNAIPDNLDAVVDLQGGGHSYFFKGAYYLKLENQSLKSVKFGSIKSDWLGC

MMP-9 [3] = details: at 37° C., pH 7.64; cited from earlier work
Target sequence in this assay (P14780 94-707, species assumed): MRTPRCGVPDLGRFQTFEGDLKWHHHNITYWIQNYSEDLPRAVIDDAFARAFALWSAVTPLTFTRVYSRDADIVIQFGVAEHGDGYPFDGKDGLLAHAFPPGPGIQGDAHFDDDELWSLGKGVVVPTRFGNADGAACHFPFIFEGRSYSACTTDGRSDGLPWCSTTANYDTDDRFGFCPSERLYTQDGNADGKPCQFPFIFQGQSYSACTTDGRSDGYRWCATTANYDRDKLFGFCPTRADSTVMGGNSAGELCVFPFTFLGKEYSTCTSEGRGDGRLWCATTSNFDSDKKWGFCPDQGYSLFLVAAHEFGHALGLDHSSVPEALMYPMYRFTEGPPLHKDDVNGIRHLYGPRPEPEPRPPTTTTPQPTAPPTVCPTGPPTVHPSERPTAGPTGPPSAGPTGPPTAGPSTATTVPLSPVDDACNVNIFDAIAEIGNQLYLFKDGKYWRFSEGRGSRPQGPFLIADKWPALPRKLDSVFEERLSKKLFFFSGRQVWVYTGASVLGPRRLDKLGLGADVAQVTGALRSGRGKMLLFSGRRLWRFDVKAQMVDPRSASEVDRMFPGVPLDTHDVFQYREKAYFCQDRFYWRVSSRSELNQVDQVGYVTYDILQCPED

MMP-3 = MMP-3 (Homo sapiens, UniProt P08254); details: at 37° C., pH 7.64; cited from earlier work
MMP-1 = target: T2, MMP-1 (Homo sapiens, UniProt P03956); details: at 37° C., pH 7.64; cited from earlier work
T2 sequence (P03956 100-469): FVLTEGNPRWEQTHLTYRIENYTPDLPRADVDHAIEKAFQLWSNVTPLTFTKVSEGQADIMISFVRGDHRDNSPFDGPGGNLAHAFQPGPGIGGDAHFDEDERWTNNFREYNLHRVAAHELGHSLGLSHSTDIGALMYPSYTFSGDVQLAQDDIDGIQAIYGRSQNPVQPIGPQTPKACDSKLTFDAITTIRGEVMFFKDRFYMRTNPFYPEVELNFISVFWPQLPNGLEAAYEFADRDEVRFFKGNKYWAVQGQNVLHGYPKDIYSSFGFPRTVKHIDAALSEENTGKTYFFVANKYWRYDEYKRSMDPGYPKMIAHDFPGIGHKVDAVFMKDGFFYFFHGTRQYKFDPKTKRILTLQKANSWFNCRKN

MMP-9 [4] = assay: 5-FAM FRET peptide assay with pure recombinant MMP-9; type: biochemical; details: pure MMP-9 activity near the threshold of Ladwig et al.
Description: Peptide: Two vials of Anaspec, Inc.'s FRET peptide XV (1646.1 g/mol; 100 pg each; Sequence: QXL™520-y-Abu-Pro-Gln-Gly-Leu-Dab(5-FAM)-Ala-Lys-NH (SEQ ID NO:3)) were reconstituted with 60.7 pL of dimethyl sulfoxide (DMSO) to create a stock solution with a concentration of 1.0 mM. A 2× (50 pM) working solution was generated by diluting the 1.0 mM stock in MMP Assay Buffer 20-fold. Each reaction will be 20 pL at final volume requiring at least 0.5 pL of 1.0 mM stock, 9.5 pL of MMP assay buffer and 10 pL of sample per reaction.
Matrix Metalloprotease 9 (aka Gelatinase B): Recombinant active pure MMP-9 from Calbiochem (Cat# PF024; 83 kDa form) in a concentration of 100 ng/mL was used to create 40 pL working solutions at 2× concentration (4× reactions per concentration).
The protease was ˜30 pL of 10 pg/mL MMP-9 (86 kDa form). The substrate was ˜60 μL of 50 μCM 5-FAM/QXL520 FRET Peptide (Fluorescein based TNO211). So the final protease concentration is ˜3.33 μg/mL with ˜33.3 μM.
After the plate-based validation, the leftover substrate and protease were used to test the system in a microcentrifuge tube. A signal visible with a handheld cyan led flashlight was present within 10 minutes. The signal was visible under normal lighting conditions, but the signal is enhanced with the lights out or with the tube shielded.
Target sequence in this assay (P14780 107-707 limits assumed): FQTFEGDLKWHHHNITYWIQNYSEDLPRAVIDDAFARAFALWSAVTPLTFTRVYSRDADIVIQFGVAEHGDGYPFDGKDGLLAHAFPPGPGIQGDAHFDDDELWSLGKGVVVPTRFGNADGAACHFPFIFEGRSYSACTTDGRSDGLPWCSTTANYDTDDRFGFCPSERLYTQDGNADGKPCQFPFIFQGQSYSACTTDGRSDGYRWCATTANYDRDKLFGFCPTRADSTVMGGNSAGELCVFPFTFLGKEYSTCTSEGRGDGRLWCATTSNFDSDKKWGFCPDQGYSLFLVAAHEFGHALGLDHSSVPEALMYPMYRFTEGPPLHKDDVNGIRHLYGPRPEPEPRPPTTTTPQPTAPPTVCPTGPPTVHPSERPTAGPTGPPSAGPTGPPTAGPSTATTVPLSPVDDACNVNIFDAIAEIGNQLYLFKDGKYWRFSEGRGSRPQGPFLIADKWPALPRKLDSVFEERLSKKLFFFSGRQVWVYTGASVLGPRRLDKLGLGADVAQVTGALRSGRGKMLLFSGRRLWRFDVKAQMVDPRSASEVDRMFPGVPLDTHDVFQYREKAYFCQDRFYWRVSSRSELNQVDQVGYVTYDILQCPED

pronase = details: 23° C., 30 min, 100 tM substrate
Description: The biotinylated fluoreceinated peptide #15 was reconstituted to a concentration of 10 mM in DMSO to serve as a stock solution. […] The 10 mM stock was further diluted to a 1 mM working stock. The final in-reaction concentration of substrate was 100 tM, which was chosen based on visual/fluorescent appearance of the diluted sample.
Three reactions were run, a negative control which contained no protease, a tube which contained 10 tg/mL, and a tube that contained 100 tg/mL.
All three tubes were shaken at room temperature (23° C.) for 30 min, then 30 μL of 500 mM EDTA was added to quench the metalloproteases. Then the reactions were immediately added to 10 kDa cut-off centrifuge filters to physically remove all proteases. This step required two separate filters per sample as the protein content was high enough to “clog” the filter after about half of the volume as filtered. The unfiltered volume was removed from the “clogged” filter and placed into a fresh filter.
Six handee spin columns were prepared in advance by loading 200 tL of the streptavidin agarose suspension (approximately 1:1 bead:buffer) and then centrifuging to remove the buffer. Upon completion of the protease removal step, the filtered volume was placed in a handee spin column loaded with ˜100 tL of a high-capacity streptavidin agarose and the volumes were well mixed by pipetting action. […]

Sequence of MMP-3 (P08254 100-477, species assumed): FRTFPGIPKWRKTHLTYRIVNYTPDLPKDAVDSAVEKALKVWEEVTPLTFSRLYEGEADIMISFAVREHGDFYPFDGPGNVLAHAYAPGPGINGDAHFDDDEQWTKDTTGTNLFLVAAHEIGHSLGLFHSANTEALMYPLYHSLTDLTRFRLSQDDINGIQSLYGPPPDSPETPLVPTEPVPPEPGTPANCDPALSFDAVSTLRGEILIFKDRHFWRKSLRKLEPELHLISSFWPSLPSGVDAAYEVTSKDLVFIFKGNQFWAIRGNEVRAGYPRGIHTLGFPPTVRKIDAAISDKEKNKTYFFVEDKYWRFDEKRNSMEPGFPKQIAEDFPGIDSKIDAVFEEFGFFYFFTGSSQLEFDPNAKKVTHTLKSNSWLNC

activity as % of pronase's observed activity (substrate TNO211 [1]): 28±3% and 28% | theoretical detection limit calculated from pronase limit (substrate TNO211 [2]): ~450 ng
Substance: MMP-9: Matrix Metalloprotease 9, protease assayed for cleavage of substrate TNO211

Substance: DABCYL-GABA-Pro-Gln-Gly-Leu-Glu(EDANS)-Ala-Lys-NH2 ({DABCYL-GABA}-PQGLE(EDANS)AK-NH2) [TNO211]
kcatKm (MMP-2): 619,000 M^−1s^−1 | kcatKm (MMP-9 [3]): 206,000 M^−1s^−1 | kcatKm (MMP-3): 40,000 M^−1s^−1 | kcatKm (MMP-1): 21,000 M^−1s^−1

Substance: collagenase
activity as % of pronase's observed activity (substrate TNO211 [1]): 2±1%

Substance: QXL™520-y-Abu-Pro-Gln-Gly-Leu-Dab(5-FAM)-Ala-Lys-NH ({QXL520-GABA}-PQGL[Dab(5-FAM)]AK-NH2) [Anaspec XV]
time to generate a signal (MMP-9 [4]): ≤ 10 min

Substance: Biotin-aAbu-Pro-Gln-Gly-Leu-Lys(5FAM)-Ala-Lys-NH2 [Peptide #15]
cleavage kinetics (pronase): favorable kinetics
